From patent US9802907B2, “2-aryl selenazole compound and pharmaceutical composition thereof” (JIANGSU ATOM BIOSCIENCE AND PHARMACEUTICAL CO., LTD., priority 2012, dated 2017)

Target: xanthine oxidase (Bos taurus (Bovine), UniProt P80457)
Conditions: read-out: Xanthine Oxidase Inhibition Activity (IC50); xanthine oxidase sourced from milk, hypoxanthine substrate, 0.1 M Tris-HCl pH 7.5, 30° C.
Procedure: The inhibition of the activity of xanthine oxidase (XO) is tested through a coupled enzymatic reaction of xanthine oxidase, horseradish peroxidase (HRP) and a substrate thereof. First, xanthine oxidase oxidizes hypoxanthine to produce xanthine and hydrogen peroxide, and further oxidizes xanthine to produce uric acid and hydrogen peroxide. […] The fluorescence intensity of resorufin is determined by using a fluorescence microplate, which is in direct proportion to the activity of xanthine oxidase.
A certain amount of a test compound and a control compound, febuxostat (by Beijing Lianben Pharm-chemicals Tech. Co., Ltd.) were dissolved in DMSO (by Sinopharm Chemical Reagent Co., Ltd.). A 2.5-fold serial dilution of the test compound was diluted with DMSO in a 96-well polypropylene reaction plate (by Greiner Bio One), so as to obtain a 200-fold dilution. The solution was further diluted in ultrapure water to obtain a 3-fold serial dilution. […]
9 μL reaction solution A and 9 μL 3-fold serial dilution of the test compound were mixed in a 96-well test plate (by Greiner Bio One), placed on a flat plate type oscillator, and mixed at 30° C. for 30 min at 100 rpm. […] The fluorescence intensity at 530 nm exciting light and 590 nm emitted light was determined by using a fluorescence microplate (Perkin Elmer Vitor X4).

Chain of xanthine oxidase (P80457 whole entry): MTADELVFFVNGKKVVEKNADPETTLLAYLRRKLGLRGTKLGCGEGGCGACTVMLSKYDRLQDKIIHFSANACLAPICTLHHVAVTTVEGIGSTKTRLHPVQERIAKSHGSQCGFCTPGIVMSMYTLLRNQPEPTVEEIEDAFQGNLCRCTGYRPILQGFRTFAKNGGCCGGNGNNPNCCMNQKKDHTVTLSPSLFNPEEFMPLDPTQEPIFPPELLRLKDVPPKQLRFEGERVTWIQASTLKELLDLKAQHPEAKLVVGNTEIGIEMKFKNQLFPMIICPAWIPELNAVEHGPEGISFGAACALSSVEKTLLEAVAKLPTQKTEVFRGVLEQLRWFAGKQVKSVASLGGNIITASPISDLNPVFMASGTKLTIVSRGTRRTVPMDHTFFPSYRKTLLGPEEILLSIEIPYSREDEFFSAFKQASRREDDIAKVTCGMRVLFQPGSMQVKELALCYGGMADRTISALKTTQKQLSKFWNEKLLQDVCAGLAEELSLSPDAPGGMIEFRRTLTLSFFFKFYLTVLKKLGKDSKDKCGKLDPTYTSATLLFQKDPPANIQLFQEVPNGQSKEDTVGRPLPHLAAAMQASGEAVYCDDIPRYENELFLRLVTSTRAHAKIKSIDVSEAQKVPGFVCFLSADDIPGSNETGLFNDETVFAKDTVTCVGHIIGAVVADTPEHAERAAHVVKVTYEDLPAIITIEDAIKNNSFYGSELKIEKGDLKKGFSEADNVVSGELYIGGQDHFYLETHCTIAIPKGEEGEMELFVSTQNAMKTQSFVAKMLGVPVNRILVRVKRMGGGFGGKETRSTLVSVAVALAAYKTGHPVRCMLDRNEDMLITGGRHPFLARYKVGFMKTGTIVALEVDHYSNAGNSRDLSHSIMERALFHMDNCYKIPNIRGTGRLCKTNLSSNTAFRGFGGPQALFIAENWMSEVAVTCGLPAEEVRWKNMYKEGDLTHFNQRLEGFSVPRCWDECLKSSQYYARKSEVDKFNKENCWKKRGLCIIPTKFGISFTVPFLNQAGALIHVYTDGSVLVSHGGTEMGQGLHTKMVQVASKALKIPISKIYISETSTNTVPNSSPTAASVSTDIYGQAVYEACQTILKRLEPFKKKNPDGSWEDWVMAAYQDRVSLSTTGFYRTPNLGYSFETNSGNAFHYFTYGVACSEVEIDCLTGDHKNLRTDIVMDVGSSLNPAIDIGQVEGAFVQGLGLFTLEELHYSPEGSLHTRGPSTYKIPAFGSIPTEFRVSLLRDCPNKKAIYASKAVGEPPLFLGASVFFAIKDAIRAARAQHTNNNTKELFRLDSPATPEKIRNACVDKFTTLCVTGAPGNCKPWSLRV

Question: Which IC50 does the source give for “2-[3-bromo-4-(aniline formyl)-phenyl]-4-methyl-selenazole-5-carboxylic acid [Compound 67]” here?
Answer: > 100 nM
